Experimental data reported in patent publication EP0100673A2, “A method of enhancing neurofiber regrowth” (THE RESEARCH FOUNDATION OF STATE UNIVERSITY OF NEW YORK, priority 1982, dated 1984).

Experiments:
plasmin = plasmin (Homo sapiens, UniProt P00747); conditions: cited from earlier work
[1] = test system: chicken and rat skeletal and fetal heart preparations; conditions: cited from earlier work
sciatic nerve [2] = assay: Counts of myelinated axons 5.0 mm proximal to repair by light microscopy; format: in vivo, rat; conditions: all time periods, treated nerves compared to control
Procedure: (§1) lwenty raty art anenthetizve with sel rompun (0.5 cc total volume). The right sciatic nerve is exposed and severed with microneuroscissors, and subsequently repaired microsurgically with 6-8 circumferential microsutures using 10-0 nylon. Immediately following surgery the treated animals receive 12 mg/kg Ac leupeptin in 5% DMSO (dimethylsulphoxide) as a bath on their sciatic nerve, 0.25 cc. total volume. Then the treated animals are injected intramuscularly in right hindlimb with 0.25 cc of a solution containing 12 mg/kg Ac leupeptin in 5% DMSO. Control animals receive the same surgical treatment, but the bath and intramuscular injection consist only of the solvent and 5% DMSO.
(§2) Thereafter, treated animals are injected twice weekly in the operated hindlimb with 12 mg/kg Ac leupeptin in 5% DMSO (0.25 cc total volume) for periods of 1 week, 1 month, two months, three months - and six months. Control animals are injected with 0.25 cc of 5% DMSO twice weekly in the operated hindlimb for the same time period.
(§3) Two treated and two control animals are assigned to each of the stated time periods.
(§4) A ten mm. portion of the repaired sciatic nerve is excised from each animal. This is fixed in 3.0% glutaraldehyde in 0.1 M sodium cacodylate, pH 7.3, overnight for electron microscopy. After post-fixation in 1.0% osmium tetroxide, ethanol dehydration and embedding in Polybed 812, both thick (1 micron) and thin (500 A°) transverse sections are cut on a ultramicrotome. Portions of the excised muscles receive similar preparation for electron microscopy.
(§5) Thick sections of the sciatic nerve are placed on microscope slots stained with toluidine blue and photographed at a constant magnification in the light microscope. Thin sections of both nerve and muscles are placed on 300 mesh copper grid calm, stained with uranyl acetate and lead citrate and photographed using a Hitachi HU-12 electron microscope.

[3] = test system: chicken pectoralis muscle; conditions: in vivo; cited from earlier work
cathespin L = conditions: in muscle, squid axoplasm and rat sciatic nerve; cited from earlier work
[4] = test system: calcium activated neutral protease; conditions: in muscle, squid axoplasm and rat sciatic nerve; cited from earlier work
sciatic nerve [5] = assay: Counts of myelinated and unmyelinated axons 5.0 mm distal to repair by electron microscopy; format: in vivo, rat; conditions: ultrastructural data, up to and including 6 months of treatment
Procedure: as §1, §2, §3, §4, §5

cathespin B = conditions: in muscle, squid axoplasm and rat sciatic nerve; cited from earlier work
kaleikrein = conditions: cited from earlier work
papain = target: T1, papain (Carica papaya, UniProt P00784); conditions: cited from earlier work
T1 sequence (P00784 134-345): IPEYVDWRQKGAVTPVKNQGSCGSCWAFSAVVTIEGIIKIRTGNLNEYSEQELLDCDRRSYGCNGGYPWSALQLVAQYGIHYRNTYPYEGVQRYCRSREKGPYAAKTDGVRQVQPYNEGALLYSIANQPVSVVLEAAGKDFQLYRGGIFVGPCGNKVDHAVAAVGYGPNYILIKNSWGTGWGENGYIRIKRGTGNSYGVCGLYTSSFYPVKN

sciatic nerve [6] = assay: Counts of myelinated axons 5.0 mm distal to repair by light microscopy; format: in vivo, rat; conditions: treated nerves vs. control nerve
Procedure: as §1, §2, §3, §4, §5

neurofiber regrowth [7] = assay: Effective dose based upon laboratory tests; format: in vivo, mammals; conditions: of mammalian weight, single or divided doses
Excerpt: The exact dose to be administered is dependent upon the age, weight and particular conditions of the individual involved.

thrombokinase = conditions: cited from earlier work
neurofiber regrowth [8] = assay: Neurofiber regrowth after microsurgical neurorrhaphy (summary of tables I-V); format: in vivo, mammals
Procedure: as §1, §2, §3
All animals are sacrified by an overdose of pentobarbital, 1.0 cc total volume. […] Myofiber diameters are determined by photographing hematoxylin and eosin sections at a constant magnification in the light microscope. […]

Sequence of plasmin (P00747 97-810, species assumed): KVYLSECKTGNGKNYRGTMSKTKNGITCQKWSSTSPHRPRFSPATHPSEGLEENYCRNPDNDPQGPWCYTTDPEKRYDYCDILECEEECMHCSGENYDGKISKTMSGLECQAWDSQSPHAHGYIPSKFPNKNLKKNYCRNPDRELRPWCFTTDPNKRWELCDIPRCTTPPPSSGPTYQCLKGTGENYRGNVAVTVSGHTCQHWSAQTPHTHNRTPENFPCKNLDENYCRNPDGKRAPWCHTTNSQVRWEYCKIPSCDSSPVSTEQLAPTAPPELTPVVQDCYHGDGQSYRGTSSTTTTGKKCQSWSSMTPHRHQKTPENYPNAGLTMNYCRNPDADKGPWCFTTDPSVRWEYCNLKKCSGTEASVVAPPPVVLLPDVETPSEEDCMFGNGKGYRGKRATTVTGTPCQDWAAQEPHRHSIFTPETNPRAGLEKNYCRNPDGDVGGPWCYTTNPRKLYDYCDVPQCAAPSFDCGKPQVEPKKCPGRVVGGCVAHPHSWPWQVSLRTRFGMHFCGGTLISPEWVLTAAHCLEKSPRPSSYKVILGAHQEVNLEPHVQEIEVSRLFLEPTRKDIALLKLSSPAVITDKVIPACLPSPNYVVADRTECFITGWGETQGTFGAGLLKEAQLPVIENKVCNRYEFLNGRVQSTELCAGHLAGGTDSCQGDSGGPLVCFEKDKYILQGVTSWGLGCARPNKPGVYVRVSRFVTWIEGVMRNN

For `CC(=O)N[C@@H](CC(C)C)C(=O)N[C@@H](CC(C)C)C(=O)N[C@H](C=O)CCCNC(=N)N` [leupeptin], the inhibition of plasmin (plasmin) is listed as “effective inhibitor”, the protein degradation [1] is listed as “decreased protein degradation” and the protein synthesis [1] is listed as “no effect on protein synthesis”. For the same compound, the “number of myelinated axons proximal to repair” value (sciatic nerve [2]) was “significantly higher number of myelinated axons when compared to control”, the denervation induced atrophy [3] was “successfully used in vivo as an inhibitor of denervation induced atrophy” and the “inhibition of cathespin L” value (cathespin L) was “inhibited”. The “inhibition of calcium activated neutral protease” value [4] was “inhibited”, the “numbers of both myelinated and unmyelinated axons distal to the repair site” value (sciatic nerve [5]) was “increased numbers of both myelinated and unmyelinated axons” and the “inhibition of cathespin B” value (cathespin B) was “inhibited”. For the same compound, the inhibition of kaleikrein (kaleikrein) was “effective inhibitor”, the inhibition of papain (papain) was “effective inhibitor” and the “Wallerian degeneration distal to repair” value (sciatic nerve [6]) was “do not undergo as severe a form of Wallerian degeneration as the control nerve”. The ED50 (neurofiber regrowth [7]) was 8 to 75 mg/kg, the inhibition of thrombokinase (thrombokinase) was “effective inhibitor” and the neurofiber regrowth (neurofiber regrowth [8]) was “significantly enhances neurofiber regrowth”.
